Experimental data: patent EP4813383A1, “USE OF TAFAMIDIS AND PHARMACEUTICALLY ACCEPTABLE SALT THEREOF IN PREVENTION, ALLEVIATION, OR TREATMENT OF DISEASES ASSOCIATED WITH HIF-2a” (Huaya Jiyuan (Shenzhen) Pharmaceutical Co., Ltd., priority 2024, dated 2025)

Key:
[1] = system: vascular endothelial growth factor (VEGF) gene expression; assay: qRT-PCR assay of VEGF gene expression in 786-O renal carcinoma cells; type: cell-based; conditions: 24 hours, relative to the vehicle, GAPDH internal control
Description: (§1) Experimental method: 786-O renal carcinoma cells are seeded into a 12-well plate. After 24 hours, tafamidis is added at different concentrations (1 µM, 10 µM, and 20 µM, separately), and the cells are co-incubated with the compound for 24 hours. No treatment is applied to the vehicle group. RNA is extracted using a TRIZOL reagent. cDNA transcription is performed using an All-in-one™ First-Strand cDNA Synthesis Kit (for specific operating procedures, see the manufacturer's instructions). A SYBR reagent is used for fluorescence signal detection, and GAPDH is used as an internal control. The qRT-PCR primers are as follows: • GAPDH_fwd, […]; • GAPDH_rev, TGGTGAAGACGCCAGTGGA; • VEGF_fwd, […]; • VEGF_rev, […]; • EPO_fwd, […]; • EPO_rev, […].

[2] = system: erythropoietin (EPO) gene expression; assay: qRT-PCR assay of EPO gene expression in 786-O renal carcinoma cells; type: cell-based; conditions: 20 µM, 24 hours, relative to the vehicle, GAPDH internal control
Description: as §1

[3] = system: aristolochic acid-induced zebrafish model; assay: Aristolochic acid-induced zebrafish model: glomerular filtration (whole-body fluorescence of tracer); type: in vivo, Wild-type AB strain zebrafish; conditions: 1 µM in aqueous solution; normal group 100%, model group 239%
Description: Wild-type AB strain zebrafish at 2 days post-fertilization are randomly selected and placed in a 6-well plate, with 30 zebrafish treated in each well (treatment group). Other than the normal control group, all treatment groups are exposed to aristolochic acid in aqueous solution to establish a zebrafish renal anemia model. After treatment at 28 °C for 18 hours, a normal control group and a model control group are set up simultaneously. Tafamidis samples are administered in aqueous solution to the treatment groups separately (at concentrations of 0.1 µM and 1 µM separately). Water is administered to the normal control group and the model control group correspondingly, with a volume of 3 mL per well. After continued treatment at 28 °C for 4 hours, all treatment groups are intravenously injected with a fluorescent tracer (dextran tetramethylrhodamine). After a further 1 day of treatment at 28 °C, 10 zebrafish are randomly selected from each treatment group and photographed under a fluorescence microscope. Data are analyzed and collected using NIS-Elements D 3.20 advanced image processing software, and whole-body fluorescence intensity in the zebrafish is analyzed. Statistical analysis of this indicator is used to evaluate the efficacy of the samples in repairing renal injury. Statistical results are expressed as mean±SE. […]

[4] = system: Cisplatin-induced renal injury and anemia rat model; assay: Cisplatin-induced renal injury and anemia rat model; type: in vivo, Male Sprague-Dawley (SD) rats
Description: Male Sprague-Dawley (SD) rats are allowed a one-week acclimation period, after which cisplatin (6 mg/kg) is administered through tail vein injection. A second injection is given one week later. Two weeks after the first administration, successful establishment of a renal disease model is confirmed by measuring serum creatinine and urea levels. The established rat model is randomly divided into four groups: a control group (n = 7), a cisplatin group (n = 6), a roxadustat group (n = 6), and a tafamidis group (n = 6). The roxadustat group and tafamidis group are orally administered the corresponding compound (roxadustat or tafamidis) at 10 mg/kg daily for four consecutive weeks. A corresponding solvent is administered to the control group and cisplatin group rat models based on the same dosing regimen. Urine samples are collected on the day following the final treatment, so as to measure UTP and UCREA. Hematological analysis is performed using a Mindray BC-5150 automated hematology analyzer, and urinalysis is performed using a Mindray BS-2000M automated biochemical analyzer, both using commercially available kits according to the manufacturers' instructions. After sample collection, the rats are euthanized. Statistical significance is determined by one-way analysis of variance (ANOVA), and then a Dunnett's test is performed for comparison with the cisplatin group (*P < 0.05, **P < 0.01, ***P < 0.001).
Left kidney samples collected from cisplatin-induced rats are fixed in 4% paraformaldehyde, dehydrated, embedded in paraffin, and sectioned. The tissue sections are 4 µm thick, and are subsequently subjected to histochemical staining such as hematoxylin-eosin (H&E), periodic acid-Schiff (PAS), and Masson's trichrome staining. After staining, the sections are scanned using advanced three-dimensional histological imaging technology, and high-resolution images are captured using a Pannoramic DESK/MIDI/250/1000 system. To evaluate renal tubular injury, 10 fields are randomly selected from each sample, and examined at a 40× magnification. The degree of renal tubular injury is assessed using a semi-quantitative scoring system (Paller score): 0 (no injury), 1 (<25% injury), 2 (25% to 50% injury), 3 (50% to 75% injury), and 4 (>75% injury). In addition, the entire tissue section is assessed at a 0.7× magnification to determine the extent of collagen fiber deposition shown by Masson's trichrome staining. Semi-quantitative analysis of the collagen fiber area is performed using Image-Pro Plus 6.0 software (Media Cybernetics, Rockville, MD, USA). For glomerular evaluation, 20 glomeruli are randomly selected from each rat and analyzed at a 63× magnification, using mesangial matrix expansion shown by PAS staining as an indicator. Semi-quantitative analysis of the mesangial matrix is likewise performed using Image-Pro Plus 6.0 software. Statistical significance is determined by one-way analysis of variance (ANOVA), and then a Dunnett's test is performed for comparison with the cisplatin group (*P < 0.05, **P < 0.01, ***P < 0.001).
Immunofluorescence staining is performed on 4 µm-thick kidney tissue sections. The sections are deparaffinized and rehydrated through ethanol, and then is subjected to microwave treatment in a 0.01 mol/L sodium citrate buffer (pH 6.0) for antigen retrieval. Subsequently, the sections are incubated overnight at 4 °C with a primary antibody against α-SMA (19245S, Cell Signaling Technology). After incubation, the sections is incubated at room temperature for 30 minutes with an HRP-conjugated secondary antibody (PK10009, Proteintech Group), and localization is performed using a DAB kit. After staining, the sections are scanned using advanced three-dimensional histological imaging technology, and high-resolution images are captured using a Pannoramic DESK/MIDI/250/1000 system. The entire tissue section is assessed at a 0.7× magnification to determine an α-SMA-positive region. […]

[5] = 10 mg/kg daily oral for four weeks, kidney tissue
[6] = 10 mg/kg daily oral for four weeks, urine, versus cisplatin group
[7] = 10 mg/kg daily oral for four weeks, urine, versus cisplatin group, p < 0.05

Row | Compound | upregulates vascular endothelial growth factor (VEGF) gene expression ([1]; 10 µM) [fold] | upregulates VEGF gene expression ([1]; 20 µM) [fold] | upregulates erythropoietin (EPO) gene expression [2] [fold] | glomerular filtration rate [3] [%] | erythropoietin (EPO) protein levels, Western blot [4, 5] | α-SMA protein expression, Western blot [4, 5] | cisplatin-induced renal injury, semi-quantitative scoring (H&E, Masson's trichrome, PAS) ([4]; 10 mg/kg daily oral for four weeks, left kidney sections) | UTP levels [4, 6] | UCREA levels [4, 7] | UTP/UCREA ratio [4, 7] | Gross observation of kidney tissues (color) ([4]; 10 mg/kg daily oral for four weeks, normal control healthy red, cisplatin group white discoloration and edema) | Red blood cells (RBCs) ([4]; 10 mg/kg daily oral, week 4, cisplatin group 6.3 ± 0.3 ×10^12, p < 0.001) | Hematocrit (HCT) ([4]; 10 mg/kg daily oral, week 4, cisplatin group 46.2 ± 1.8%, p < 0.001) [%] | Hemoglobin (HGB) ([4]; 10 mg/kg daily oral, week 4, cisplatin group 127.7 ± 4.7, p < 0.05) [g/L]
1 | O=C(O)c1ccc2nc(-c3cc(Cl)cc(Cl)c3)oc2c1 [tafamidis, 2-(3,5-dichlorophenyl)-1,3-benzoxazole-6-carboxylic acid] | 0.5 | 1.4 | 0.9 | 158 | increasing | significantly reduces | significantly alleviates | little effect | increases | reducing | normal red color | 8.1 ± 0.4 × 10^12 cells/L | 58.4 ± 2.9 | 161.8 ± 9.3
2 | Cc1nc(C(=O)NCC(=O)O)c(O)c2ccc(Oc3ccccc3)cc12 [roxadustat] |  |  |  |  |  |  |  | increases |  |  |  |  |  | 
